Assay results: patent publication US7531482B2, “Thieno-pyrimidine compounds having fungicidal activity” (Dow AgroSciences LLC, priority 2005, dated 2009)
Where two headings read alike, the source gives them in different places.

Key:
Format in all cases: in vivo
[1] = tested on: Magnaporthe grisea=Pyricularia oryzae; experiment: whole plant or invertebrate; settings: Pyricularia oryzae, foliar, read-out: PYRIOR disease control, 200 ppm applied to foliage of rice; inoculated one day after treatment
Leptosphaeria nodorum = experiment: Glume Blotch of Wheat (LEPTNO) whole-plant disease control test; settings: Parastagonospora nodorum, foliar, read-out: LEPTNO disease control
Phytophthora infestans = experiment: whole plant or invertebrate; settings: Phytophthora infestans, in Solanum lycopersicum, foliar, read-out: PHYTIN disease control, 200 ppm applied to foliage of tomato; inoculated one day after treatment
Colletotricum lagenarium = experiment: Cucumber Anthracnose (COLLLA) whole-plant disease control test; settings: Cucumis sativus, foliar, read-out: COLLLA disease control
Erysiphe cichoracaerum = experiment: Cucumber Powdery Mildew (ERYSCI) whole-plant disease control test; settings: Erysiphe, foliar, read-out: ERYSCI disease control
[2] = tested on: Mycosphaerella graminicola=Septoria tritici; experiment: Speckled Leaf Blotch of Wheat (SEPTTR) whole-plant disease control test; settings: Mycosphaerella, foliar, read-out: SEPTTR disease control
[3] = tested on: Puccinia recondita tritici; experiment: Leaf Rust of Wheat (PUCCRT) whole-plant disease control test; settings: Puccinia recondita, foliar, read-out: PUCCRT disease control
[4] = 200 ppm applied to foliage of wheat, inoculated one day after treatment
[5] = 200 ppm applied to foliage of cucumber, inoculated one day after treatment
[6] = 75 ppm applied to foliage of wheat

SMILES | pest or weed control at 200 ppm [1] [%] | pest or weed control at 200 ppm (Leptosphaeria nodorum; [4]) [%] | pest or weed control at 200 ppm (Phytophthora infestans) [%] | pest or weed control at 200 ppm (Colletotricum lagenarium; [5]) [%] | pest or weed control at 200 ppm (Erysiphe cichoracaerum; [5]) [%] | pest or weed control at 75 ppm [2, 6] [%] | pest or weed control at 200 ppm [3, 4] [%] | pest or weed control at 200 ppm (Leptosphaeria nodorum) [%] | pest or weed control at 200 ppm (Colletotricum lagenarium) [%] | pest or weed control at 200 ppm (Erysiphe cichoracaerum) [%] | pest or weed control at 75 ppm [2] [%] | pest or weed control at 200 ppm [3] [%]
FC(F)(F)c1ccnc(Oc2cccc(CCNc3ncnc4scc(Cl)c34)c2)c1 [Compound 69] | 80 to 100 | 0 to 49 | 0 to 49 | 0 to 49 | 50 to 79 | 50 to 79 | 80 to 100 | – | – | – | – | –
Cc1cc(OC(F)F)cnc1Oc1ccc(CCNc2ncnc3scc(Cl)c23)cc1 [Compound 70] | 80 to 100 | 80 to 100 | 50 to 79 | 80 to 100 | 0 to 49 | 80 to 100 | 80 to 100 | – | – | – | – | –
N#Cc1c(Cl)cncc1Oc1ccc(CCNc2ncnc3scc(Cl)c23)cc1 [Compound 71] | 80 to 100 | 80 to 100 | 0 to 49 | 80 to 100 | 50 to 79 | 80 to 100 | 80 to 100 | – | – | – | – | –
N#Cc1ccncc1Oc1ccc(CCNc2ncnc3scc(Cl)c23)cc1 [Compound 74] | 80 to 100 | 80 to 100 | 50 to 79 | 80 to 100 | 0 to 49 | 50 to 79 | 80 to 100 | – | – | – | – | –
FC(F)(F)c1cc(Oc2ccc(CCNc3ncnc4scc(Cl)c34)cc2)cc(C(F)(F)F)n1 [Compound 75] | 80 to 100 | 80 to 100 | 0 to 49 | 80 to 100 | 80 to 100 | 50 to 79 | 80 to 100 | – | – | – | – | –
FC(F)(F)c1cc(Oc2ccc(CCNc3ncnc4scc(Cl)c34)cc2)nc(C(F)(F)F)c1 [Compound 76] | 80 to 100 | 50 to 79 | 0 to 49 | 50 to 79 | 0 to 49 | 0 to 49 | 80 to 100 | – | – | – | – | –
Clc1csc2ncnc(NCCc3ccc(Oc4cccc(C(Cl)(Cl)Cl)n4)cc3)c12 [Compound 77] | 80 to 100 | 80 to 100 | 0 to 49 | 0 to 49 | 0 to 49 | 0 to 49 | 80 to 100 | – | – | – | – | –
FC(F)(F)c1ncccc1Oc1ccc(CCNc2ncnc3scc(Cl)c23)cc1 [Compound 78] | 80 to 100 | 80 to 100 | 50 to 79 | 50 to 79 | 80 to 100 | 50 to 79 | 80 to 100 | – | – | – | – | –
COC(=O)c1cccc(Oc2ccc(CCNc3ncnc4scc(Cl)c34)cc2)n1 [Compound 79] | 80 to 100 | 0 to 49 | 80 to 100 | 0 to 49 | 0 to 49 | 0 to 49 | 80 to 100 | – | – | – | – | –
CCOC(=O)c1cccc(Oc2ccc(CCNc3ncnc4scc(Cl)c34)cc2)n1 [Compound 80] | 80 to 100 | 0 to 49 | 80 to 100 | 0 to 49 | 0 to 49 | 0 to 49 | 80 to 100 | – | – | – | – | –
COc1cc(C#N)cc(Oc2ccc(CCNc3ncnc4scc(Cl)c34)cc2)n1 [Compound 81] | 80 to 100 | 80 to 100 | 0 to 49 | 50 to 79 | 50 to 79 | 50 to 79 | 80 to 100 | – | – | – | – | –
Cc1cccc(Oc2ccc(CCNc3ncnc4scc(Cl)c34)cc2)n1 [Compound 85] | 80 to 100 | 80 to 100 | 80 to 100 | 50 to 79 | 80 to 100 | 80 to 100 | 80 to 100 | – | – | – | – | –
Clc1csc2ncnc(NCCc3ccc(Oc4ncnc5scnc45)cc3)c12 [Compound 86] | 50 to 79 | 50 to 79 | 80 to 100 | 0 to 49 | 50 to 79 | 80 to 100 | 80 to 100 | – | – | – | – | –
COc1cc(Oc2ccc(CCNc3ncnc4scc(Cl)c34)cc2)c(Br)cn1 [Compound 87] | 80 to 100 | 50 to 79 | 50 to 79 | 0 to 49 | 80 to 100 | 50 to 79 | 80 to 100 | – | – | – | – | –
COc1cc(C(F)(F)F)cc(Oc2ccc(CC(C)Nc3ncnc4scc(Cl)c34)cc2)n1 (centres unmarked) [Compound 88] | 80 to 100 | 0 to 49 | 0 to 49 | 50 to 79 | 80 to 100 | 50 to 79 | 80 to 100 | – | – | – | – | –
Clc1csc2ncnc(NCCc3ccc(Oc4cccc(-n5cccn5)n4)cc3)c12 [Compound 89] | 80 to 100 | 80 to 100 | 0 to 49 | 0 to 49 | 80 to 100 | 50 to 79 | 80 to 100 | – | – | – | – | –
CS(=O)(=O)c1cccc(Oc2ccc(CCNc3ncnc4scc(Cl)c34)cc2)n1 [Compound 91] | 80 to 100 | 80 to 100 | 80 to 100 | 0 to 49 | 50 to 79 | 0 to 49 | 80 to 100 | – | – | – | – | –
CC(Cc1ccc(Oc2c(Cl)cnc(C(F)(F)F)c2Cl)cc1)Nc1ncnc2scc(Cl)c12 (centres unmarked) [Compound 94] | 80 to 100 | 0 to 49 | 0 to 49 | 50 to 79 | 50 to 79 | 0 to 49 | 80 to 100 | – | – | – | – | –
CS(=O)(=O)c1cc(Oc2ccc(CCNc3ncnc4scc(Cl)c34)cc2)ccn1 [Compound 95] | 80 to 100 | 80 to 100 | 80 to 100 | 50 to 79 | 0 to 49 | 50 to 79 | 80 to 100 | – | – | – | – | –
N#CCc1cccc(Oc2ccc(CCNc3ncnc4scc(Cl)c34)cc2)n1 [Compound 97] | 80 to 100 | – | 80 to 100 | – | – | – | – | 80 to 100 | 50 to 79 | 0 to 49 | 50 to 79 | 80 to 100
O=C(Nc1ccc(CCNc2ncnc3scc(Cl)c23)cc1)c1ccnc(Cl)c1 [Compound 99, 2-Chloro-N-{4-[2-(5-chlorothieno[2,3,-d]pyrimidin-4-ylamino)ethyl]phenyl}isonicotinamide] | 80 to 100 | 0 to 49 | 50 to 79 | 50 to 79 | 0 to 49 | 0 to 49 | 80 to 100 | – | – | – | – | –
N#Cc1nc(F)c(F)c(Oc2ccc(CCNc3ncnc4scc(Cl)c34)cc2)c1F [Compound 103] | 50 to 79 | 50 to 79 | 0 to 49 | 50 to 79 | 0 to 49 | 0 to 49 | 50 to 79 | – | – | – | – | –
Clc1ccc(COc2ccc(CCNc3ncnc4scc(Cl)c34)cc2)cn1 [Compound 104] | 80 to 100 | 0 to 49 | 0 to 49 | 50 to 79 | 0 to 49 | 50 to 79 | 80 to 100 | – | – | – | – | –
FC(F)(F)c1ccc(COc2ccc(CCNc3ncnc4scc(Cl)c34)cc2)o1 [Compound 105] | 80 to 100 | 0 to 49 | 0 to 49 | 0 to 49 | 0 to 49 | 0 to 49 | 50 to 79 | – | – | – | – | –
CC(C)OC(=O)c1cnc(Oc2ccc(CCNc3ncnc4scc(Cl)c34)cc2)c(Cl)c1 [Compound 106] | 80 to 100 | 0 to 49 | 0 to 49 | 0 to 49 | 0 to 49 | 50 to 79 | 80 to 100 | – | – | – | – | –
CC(C)c1cncnc1COc1ccc(CCNc2ncnc3scc(Cl)c23)cc1 [Compound 107] | 80 to 100 | 0 to 49 | 80 to 100 | 0 to 49 | 0 to 49 | 50 to 79 | 80 to 100 | – | – | – | – | –
